Assay results from US10179125B2, “Substituted pyridines as bromodomain inhibitors” (Zenith Epigenetics Ltd., priority 2014, dated 2019).

Legend:
[1] = system: Human AML MV-4-11 cells; experiment: Inhibition of cell proliferation in MV4-11 cells (CellTiter Aqueous One); format: cell-based; conditions: 72 h; for IC50: Homo sapiens
Method: MV4-11 cells (CRL-9591) were plated at a density of 5×10^4 cells per well in 96 well flat bottom plates and treated with increasing concentrations of test compound or DMSO (0.1%) in IMDM media containing 10% FBS and penicillin/streptomycin. Triplicate wells were used for each concentration and a well containing only media was used as a control. Plates were incubated at 37° C., 5% CO2 for 72 h before adding 20 μL of the CellTiter Aqueous One Solution (Promega) to each well and incubated at 37° C., 5% CO2 for an additional 3-4 h. The absorbance was read at 490 nm in a spectrophotometer and the percentage of cell titer relative to DMSO-treated cells was calculated after correcting for background by subtracting the blank well's signal. IC50 values were calculated using the GraphPad Prism software.

[2] = target: T1, Brd4 bromodomain 1 (BRD4(1)) (Homo sapiens, UniProt O60885); experiment: Inhibition of tetra-acetylated histone H4 binding to BET bromodomain (HTRF/FRET); conditions: His-tagged bromodomain 200 nM, biotinylated tetra-acetylated histone H4 peptide, 2 h room temperature
T1 construct: made in house; host or cells: E. coli BL21(DE3)
Method: Proteins were cloned and overexpressed with a N-terminal 6×His tag, then purified by nickel affinity followed by size exclusion chromatography. Briefly, E. coli BL21(DE3) cells were transformed with a recombinant expression vector encoding N-terminally Nickel affinity tagged bromodomains from Brd2, Brd3, Brd4. Cell cultures were incubated at 37° C. with shaking to the appropriate density and induced overnight with IPTG. The supernatant of lysed cells was loaded onto Ni-IDA column for purification, Eluted protein was pooled, concentrated and further purified by size exclusion chromatography. Fractions representing monomeric protein were pooled, concentrated, aliquoted, and frozen at −80° C. for use in subsequent experiments.
Binding of tetra-acetylated histone H4 and BET bromodomains was confirmed by a Homogenous Time Resolved Fluorescence Resonance Energy Transfer (HTRF®) method, N-terminally His-tagged bromodomains (200 nM) and biotinylated tetra-acetylated histone H4 peptide (25-50 nM, Millipore) were incubated in the presence of Europium Cryptate-labeled streptavidin (Cisbio Cat, #610SAKLB) and XL665-labeled monoclonal anti-His antibody (Cisbio Cat.1461HISXLB) in a white 96 well microtiter plate (Greiner). For inhibition assays, serially diluted test compound was added to these reactions in a 0.2% final concentration of DMSO. Duplicate wells were used for each concentration tested. Final buffer concentrations were 30 mM HEPES pH 7.4, 30 mM NaCl, 0.3 mM CHAPS, 20 mM phosphate pH 7.0, 320 mM KF, 0.08% BSA. After a 2 h incubation at room temperature, fluorescence was measured at 665 and 620 nm with a SynergyH4 plate reader (Biotek). The binding inhibitory activity was shown by a decrease in […] relative to 620 nm fluorescence. IC50 values were determined from a dose response curve.

[3] = system: hIL-6; experiment: Inhibition of hIL-6 mRNA transcription in LPS-stimulated U937 cells; format: cell-based, Human; conditions: Homo sapiens, U-937, PMA-differentiated U937 cells, 1 h pretreatment, LPS 3 h, read-out: IL-6 activity
Method: Human leukemic monocyte lymphoma U937 cells (CRL-1593.2) were plated at a density of 3.2×10^4 cells per well in a 96-well plate in 100 μL RPMI-1640 containing 10% FBS and penicillin/streptomycin, and differentiated into macrophages for 3 days in 60 ng/mL PMA ([…]) at 37° C. in 5% CO2 prior to the addition of compound. The cells were pretreated for 1 h with increasing concentrations of test compound in 0.1% DMSO prior to stimulation with 1 ug/mL lipopolysaccharide from Escherichia coli. Triplicate wells were used for each concentration. The cells were incubated at 37° C., 5% CO2 for 3 h before the cells were harvested. At time of harvest, media was removed and cells were rinsed in 200 μL PBS. Cells were harvested using the mRNA Catcher PLUS kit according to manufacturer's instructions. The eluted mRNA was then used in a one-step quantitative real-time PCR reaction using components of the RNA UltraSense™ One-Step Kit (Life Technologies) together with Applied Biosystems TaqMan® primer-probes for hIL-6 and Cyclophilin. Real-time PCR plates were run on a ViiA™7 real time PCR machine (Applied Biosystems), data was analyzed, normalizing the Ct values for hIL-6 to an internal control, prior to determining the fold expression of each sample, relative to the control.

[4] = system: cMYC; experiment: Inhibition of cMYC expression in MV4-11 cells (real-time PCR); format: cell-based, Human; conditions: 3 h, cMYC mRNA; for IC50: Homo sapiens, read-out: c-myc activity
Method: MV4-11 cells (CRL-9591) were plated at a density of 2.5×10^4 cells per well in 96 well U-bottom plates and treated with increasing concentrations of test compound or DMSO (0.1%) in IMDM media containing 10% FBS and penicillin/streptomycin, and incubated for 3 h at 37° C. Triplicate wells were used for each concentration. Cells were pelleted by centrifugation and harvested using the mRNA Catcher PLUS kit according to manufacturer's instructions. The eluted mRNA isolated was then used in a one-step quantitative real-time PCR reaction, using components of the RNA UltraSense™ One-Step Kit (Life Technologies) together with Applied Biosystems TaqMan® primer-probes for cMYC and Cyclophilin, Real-time PCR plates were run on a ViiA™7 real time PCR machine (Applied Biosystems), data was analyzed, normalizing the Ct values for cMYC to an internal control, prior to determining the fold expression of each sample, relative to the control.

IC50 [1] | IC50 [2] | IC50 [3] | IC50 [4] | Compound | c-myc activity [4] | Cell Proliferation activity [1]
3000 to 30000 nM | ≤ 300 nM | 300 to 3000 nM | 300 to 3000 nM | COc1ncc(-c2c(C)noc2C)cc1Nc1cc(C(N)=O)ccc1C [Example 62, 3-((5-(3,5-dimethylisoxazol-4-yl)-2-methoxypyridin-3-yl)amino)-4-methylbenzamide] | – | –
300 to 3000 nM | ≤ 300 nM | 300 to 3000 nM | 300 to 3000 nM | CCOc1ncc(-c2c(C)noc2C)cc1NCc1ccccc1 [Example 39, N-benzyl-5-(3,5-dimethylisoxazol-4-yl)-2-ethoxypyridin-3-amine] | – | –
3000 to 30000 nM | ≤ 300 nM | 300 to 3000 nM | 300 to 3000 nM | COc1ncc(-c2c(C)noc2C)cc1NCc1nc2ccccc2o1 [Example 46, N-(benzo[d]oxazol-2-ylmethyl)-5-(3,5-dimethylisoxazol-4-yl)-2-methoxypyridin-3-amine] | – | –
3000 to 30000 nM | ≤ 300 nM | 300 to 3000 nM | 3000 to 30000 nM | COc1ncc(-c2c(C)noc2C)cc1NCc1cc(C)sc1C [Example 20, 5-(3,5-dimethylisoxazol-4-yl)-N-((2,5-dimethylthiophen-3-yl)methyl)-2-methoxypyridin-3-amine] | – | –
300 to 3000 nM | ≤ 300 nM | 300 to 3000 nM | 300 to 3000 nM | CNc1ncc(-c2c(C)noc2C)cc1NCc1nccs1 [Example 56, 5-(3,5-dimethylisoxazol-4-yl)-N2-methyl-N3-(thiazol-2-ylmethyl)pyridine-2,3-diamine] | – | –
3000 to 30000 nM | ≤ 300 nM | 3000 to 30000 nM | – | COc1ncc(-c2c(C)noc2C)cc1OCc1ccc(C#N)cc1 [Example 30, 4-(((5-(3,5-dimethylisoxazol-4-yl)-2-methoxypyridin-3-yl)oxy)methyl)benzonitrile] | Not Active | –
3000 to 30000 nM | ≤ 300 nM | 300 to 3000 nM | 300 to 3000 nM | COc1ncc(-c2c(C)noc2C)cc1Nc1cccnc1C [Example 59, 5-(3,5-dimethylisoxazol-4-yl)-2-methoxy-N-(2-methylpyridin-3-yl)pyridin-3-amine] | – | –
300 to 3000 nM | ≤ 300 nM | ≤ 300 nM | 300 to 3000 nM | COc1ncc(-c2c(C)noc2C)cc1NCc1ccc(C#N)c(F)c1 [Example 29, 4-(((5-(3,5-dimethylisoxazol-4-yl)-2-methoxypyridin-3-yl)amino)methyl)-2-fluorobenzonitrile] | – | –
3000 to 30000 nM | ≤ 300 nM | 300 to 3000 nM | 3000 to 30000 nM | COc1ncc(-c2c(C)noc2C)cc1Nc1ccccc1F [Example 18, 5-(3,5-dimethylisoxazol-4-yl)-N-(2-fluorophenyl)-2-methoxypyridin-3-amine] | – | –
3000 to 30000 nM | ≤ 300 nM | 300 to 3000 nM | 300 to 3000 nM | COc1ncc(-c2c(C)noc2C)cc1NCc1nc2ccccc2s1 [Example 57, N-(benzo[d]thiazol-2-ylmethyl)-5-(3,5-dimethylisoxazol-4-yl)-2-methoxypyridin-3-amine] | – | –
3000 to 30000 nM | ≤ 300 nM | 300 to 3000 nM | 300 to 3000 nM | COc1ncc(-c2c(C)noc2C)cc1OCc1ccccn1 [Example 40, 4-(6-methoxy-5-(pyridin-2-ylmethoxy)pyridin-3-yl)-3,5-dimethylisoxazole] | – | –
300 to 3000 nM | ≤ 300 nM | 300 to 3000 nM | 300 to 3000 nM | COc1ncc(-c2c(C)noc2C)cc1Nc1ccc(F)cc1 [Example 19, 5-(3,5-dimethylisoxazol-4-yl)-N-(4-fluorophenyl)-2-methoxypyridin-3-amine] | – | –
300 to 3000 nM | ≤ 300 nM | 300 to 3000 nM | 300 to 3000 nM | COc1ncc(-c2c(C)noc2C)cc1Nc1cn(C)nc1C [Example 63, N-(1,3-dimethyl-1H-pyrazol-4-yl)-5-(3,5-dimethylisoxazol-4-yl)-2-methoxypyridin-3-amine] | – | –
3000 to 30000 nM | ≤ 300 nM | 300 to 3000 nM | 300 to 3000 nM | Cc1noc(C)c1-c1cnc(Oc2ccccc2)c(NCc2ccccc2)c1 [Example 38, N-benzyl-5-(3,5-dimethylisoxazol-4-yl)-2-phenoxypyridin-3-amine] | – | –
– | 300 to 3000 nM | 3000 to 30000 nM | – | COc1ncc(-c2c(C)noc2C)cc1NCc1nc2ccccc2[nH]1 [Example 53, N-((1H-benzo[d]imidazol-2-yl)methyl)-5-(3,5-dimethylisoxazol-4-yl)-2-methoxypyridin-3-amine] | Not Active | Not Active
300 to 3000 nM | ≤ 300 nM | 300 to 3000 nM | 300 to 3000 nM | COc1ncc(-c2c(C)noc2C)cc1OCc1ccsc1 [Example 37, 4-(6-methoxy-5-(thiophen-3-ylmethoxy)pyridin-3-yl)-3,5-dimethylisoxazole] | – | –
300 to 3000 nM | 300 to 3000 nM | 300 to 3000 nM | 300 to 3000 nM | COc1ncc(-c2c(C)noc2C)cc1NC(C)c1ccccc1 (stereo not shown) [Example 5, 5-(3,5-dimethylisoxazol-4-yl)-2-methoxy-N-(1-phenylethyl)pyridin-3-amine] | – | –
300 to 3000 nM | ≤ 300 nM | 300 to 3000 nM | 300 to 3000 nM | COc1ncc(-c2c(C)noc2C)cc1NC(C)c1ccccn1 (stereo not shown) [Example 24, 5-(3,5-dimethylisoxazol-4-yl)-2-methoxy-N-(1-(pyridin-2-yl)ethyl)pyridin-3-amine] | – | –
– | ≤ 300 nM | 3000 to 30000 nM | – | COc1ncc(-c2c(C)noc2C)cc1Nc1cc(C#N)ccc1C [Example 61, 3-((5-(3,5-dimethylisoxazol-4-yl)-2-methoxypyridin-3-yl)amino)-4-methylbenzonitrile] | Not Active | Not Active
3000 to 30000 nM | ≤ 300 nM | 300 to 3000 nM | 3000 to 30000 nM | Cc1noc(C)c1-c1cnc(OC(C)C)c(NCc2ccccc2)c1 [Example 27, N-benzyl-5-(3,5-dimethylisoxazol-4-yl)-2-isopropoxypyridin-3-amine] | – | –
300 to 3000 nM | ≤ 300 nM | 300 to 3000 nM | 3000 to 30000 nM | COc1ncc(-c2c(C)noc2C)cc1OC(C)c1ccccc1 (stereo not shown) [Example 31, 4-(6-methoxy-5-(1-phenylethoxy)pyridin-3-yl)-3,5-dimethylisoxazole] | – | –
3000 to 30000 nM | 300 to 3000 nM | 3000 to 30000 nM | 3000 to 30000 nM | COc1ncc(-c2c(C)noc2C)cc1NCCc1ccccc1 [Example 26, 5-(3,5-dimethylisoxazol-4-yl)-2-methoxy-N-phenethylpyridin-3-amine] | – | –
